{"source": "patent US20220000872A1", "about": "“METHOD OF ENHANCING IMMUNE-BASED THERAPY” (OncoTracker, Inc., priority 2018, published 2022)", "key": {"PD-L1 gene expression": {"system": "PD-L1 gene expression", "conditions": "MM patient; after 4 months of treatment vs before treatment; qPCR", "from_the_text": "(§1) A second sample of BMMCs was collected after treatment with ruxolitinib, methylprednisolone, and lenalidomide."}, "PD-L2 gene expression": {"system": "PD-L2 gene expression", "conditions": "MM patient; after 4 months of treatment vs before treatment; qPCR", "from_the_text": "as §1"}, "MM cells": {"system": "MM cells", "assay": "Dead MM cells by Trypan blue staining, BMMCs co-cultured with HS-5 stromal cells", "assay_type": "cell-based, human", "conditions": "MM BMMCs co-cultured with HS-5"}, "B7-H3 gene expression": {"system": "B7-H3 gene expression", "assay": "B7-H3 gene expression (qPCR) in MM BMMCs, U266 cells and THP-1 monocytes", "assay_type": "cell-based, human", "conditions": "RUX 1 μM", "procedure": "We further examined BMMCs from two MM patients (#s 2188 and 2935) treated with RUX (1 μM) for 24 hours. RUX reduced B7-H3 gene expression as measured using qPCR in BMMCs (FIG. 7B). We also analyzed BMMCs co-cultured with stromal cells. B7-H3 gene expression was increased 16-fold in BMMCs after these cells were co-cultured with stromal cells. […] We further determined the effect of RUX (1 μM) on gene expression of B7-H3 in the MM cell line U266 co-cultured with THP-1 monocytes (T) after 48 hours. RUX at 1 μM reduced B7-H3 expression in both U266 MM cells and THP-1 monocytes, cultured alone or co-cultured, compared to cell cultures not treated with RUX (FIG. 7D)."}, "[1]": {"system": "Tumor cells from the LAGκ-1A human MM xenograft", "assay": "Annexin V apoptosis assay of LAGκ-1A myeloma tumor cells with or without IL-2 pre-treated T-cells", "assay_type": "cell-based", "conditions": "in the absence of T-cells", "procedure": "T-cells (SUP-T1, ATCC) were pre-treated with IL-2 (20 ng/ml) for 24 hours. In the RUX at 1 μM with anti-PD-L1 group, the antibody concentrations were varied as indicated on the x-axis but the RUX was tested at a fixed concentration (1 μM). For the anti-PD-L1 at 5 mg/mL with RUX group, the RUX concentrations were varied as on the x-axis but the anti-PD-L1 antibody was evaluated at a fixed concentration (5 mg/mL). Tumor cells from the LAGκ-1A human MM xenograft were single-cell suspended and co-cultured with T cells treated with either RUX (1 μM) and anti-PD-L1 antibody or RUX alone for 72 hours. Tumor cell apoptosis was measured using the Annexin V assay per the manufacturer's protocol (Biovision) followed with flow cytometric analysis (FC-500 cytometer using Cytometric CXP software, both Beckman Coulter).\nT-cells were pre-treated with IL-2 (20 ng/ml) for 24 hours. […] For the anti-PD-1 at 5 mg/mL with RUX group, the RUX concentrations were varied as on the x-axis but the anti-PD-1 antibody was evaluated at a fixed concentration (5 mg/mL). […] Tumor cell apoptosis was measured using the Annexin V assay per the manufacturer's protocol (Biovision) followed with flow cytometric analysis (FC-500 cytometer using Cytometric CXP software, both Beckman Coulter). […]"}, "IL-2 gene expression": {"system": "IL-2 gene expression", "assay": "IL-2 gene expression (qPCR) in BMMCs from three MM patients", "assay_type": "cell-based, human", "conditions": "RUX 1 μM, 24 hours", "procedure": "BMMCs from three MM patients were treated with RUX (1 μM) for 24 hours with or without co-culture with T cells in vitro. IL-2 gene expression levels were determined using qPCR RUX induced IL-2 expression in BMMCs alone and those co-cultured with T cells (SUP-T1, ATCC) in Trans-well culture dishes."}, "[2]": {"system": "PD-L1 gene and protein expression", "assay": "PD-L1 gene and protein expression in MM tumor cells alone or co-cultured with stromal cells (Example 11)", "assay_type": "cell-based, human", "conditions": "concentration dependent pattern", "procedure": "BM mononuclear cells (MCs) and serum were collected from MM patients and healthy subjects after obtaining IRB approval. Single-cell suspensions were prepared from human MM LAGκ-1A xenografts which had been grown in the mice. The cells were cultured and treated with or without RUX and then were determined by qPCR, flow cytometric analysis, ELISA, and western blot.\n(§2) We further investigated the effects of RUX on PD-L1 and PD-L2 expression in primary and stromal cells from MM patients' BM samples in vitro. […] We then determined whether RUX can augment the anti-MM effects of T-cells in vitro. […] To evaluate the efficacy of drugs in vivo, severe combined immune deficient mice implanted with the human MM xenograft LAGκ-2 were treated with RUX (30 mg/kg)."}, "MM cell": {"system": "MM cell", "assay": "MM cell apoptosis in the presence of IL-2 stimulated T-cells (Example 11)", "assay_type": "cell-based, human", "conditions": "RUX 0-5 μM; antibodies 0-10 μg/ml; concentration dependent", "procedure": "as §2, with “mg/kg). […] In contrast, RUX had no effect on PD-1 expression on T-cells.” for “mg/kg).”"}, "[3]": {"system": "PD-L1 expression in the xenograft", "assay": "PD-L1 expression in human MM xenograft LAGκ-2 in severe combined immune deficient mice", "assay_type": "in vivo", "conditions": "LAGκ-2 in SCID mice; RUX 30 mg/kg; vs untreated control group", "procedure": "as §2"}, "CD8 gene expression": {"system": "CD8 gene expression", "assay": "CD8 gene expression in MMBM (Example 12)", "assay_type": "cell-based, human", "procedure": "Bone marrow mononuclear cells (BMMCs) were collected from MM patients after obtaining IRB approval. Single-cell suspensions were prepared from human MM LAGλ-1A xenografts which had been grown in severe combined immunodeficient mice. HS-5 stromal and SUP-T1 T cells were purchased from ATCC. The cells were cultured and treated with or without RUX and then subjected to qRT-PCR, flow cytometric analysis, and western blot analysis. For qRT-PCR, total RNA was extracted and applied to cDNA synthesis, followed by qPCR. Gene expression was analyzed in MM BMMCs alone or co-cultured with stromal cells or T cells with or without Rux treatment (1 μM) in vitro.\nNext, we tested whether B7-H3 blockade by Rux could potentially restore exhausted T cell activity against myeloma cells in MMBM."}, "multiple myeloma [4]": {"system": "multiple myeloma", "conditions": "Phase 1 clinical trial NCT00639002; cited from earlier work"}, "multiple myeloma [5]": {"system": "multiple myeloma", "conditions": "combined with a thalidomide derivative such as lenalidomide and optionally a steroid or glucocorticoid; cited from earlier work"}}, "note": "Entries after “also recorded” stand apart in the source; their conditions may differ.", "data": [{"smiles": "N#CC[C@H](C1CCCC1)n1cc(-c2ncnc3[nH]ccc23)cn1", "note": "[RUX, ruxolitinib]", "values": [{"measurement": "PD-L1 gene expression in BMMCs", "setting": "PD-L1 gene expression", "value": "down-regulates"}, {"measurement": "PD-L2 gene expression in BMMCs", "setting": "PD-L2 gene expression", "value": "down-regulates"}, {"measurement": "percentage of dead MM cells", "setting": "MM cells", "value": "increased in a concentration dependent fashion"}, {"measurement": "B7-H3 gene expression in BMMCs", "setting": "B7-H3 gene expression; BMMCs from two MM patients (#2188, #2935), 24 hours, qPCR", "value": "reduced; also recorded: down-regulates"}, {"measurement": "B7-H3 expression in BMMCs co-cultured with stromal cells", "setting": "B7-H3 gene expression", "value": "markedly reduced; also recorded: decreases"}, {"measurement": "B7-H3 expression in U266 MM cells", "setting": "B7-H3 gene expression; cultured alone or co-cultured with THP-1, 48 hours", "value": "reduces"}, {"measurement": "B7-H3 expression in THP-1 monocytes", "setting": "B7-H3 gene expression; cultured alone or co-cultured with U266, 48 hours", "value": "reduced"}, {"measurement": "apoptosis of LAGκ-1A cells, single-agent treatment", "setting": "[1]", "value": "does not lead to significant apoptosis"}, {"measurement": "IL-2 expression in BMMCs alone", "setting": "IL-2 gene expression", "value": "induced; also recorded: increased"}, {"measurement": "IL-2 expression in BMMCs co-cultured with T cells", "setting": "IL-2 gene expression; SUP-T1 in Trans-well dishes", "value": "induced"}, {"measurement": "PD-L1 gene and protein expression in MM tumor cells", "setting": "[2]", "value": "markedly reduced"}, {"measurement": "MM cell apoptosis in the presence of IL-2 stimulated T-cells", "setting": "MM cell", "value": "increased"}, {"measurement": "PD-L1 expression in the xenograft", "setting": "[3]", "value": "significantly decreased"}, {"measurement": "CD8 gene expression in BM cocultured with T cells", "setting": "CD8 gene expression; SUP-T1", "value": "elevated"}, {"measurement": "CD8 gene expression in MMBM with lower plasma percentages", "setting": "CD8 gene expression; plasma cell percentage <30%", "value": "increase"}, {"measurement": "efficacy of monotherapy for multiple myeloma", "setting": "multiple myeloma [4]", "value": "ineffective"}, {"measurement": "efficacy in treating hematological malignancies (in particular, multiple myeloma)", "setting": "multiple myeloma [5]", "value": "effective"}]}]}
